# Test results as given in ChEMBL document CHEMBL1125413 (J Med Chem, 1992).
# How the values were obtained:
# [1] = biological target: T1, Sodium-dependent dopamine transporter (Rattus norvegicus, UniProt P23977)
# [2] = biological target: T1, Sodium-dependent dopamine transporter; remark: listed apart in the source
# [3] = biological target: T1, Sodium-dependent dopamine transporter; test: Inhibition of [3H]dopamine uptake at dopamine transporter.
# [4] = biological target: T1, Sodium-dependent dopamine transporter; test: Inhibition of [3H]-dopamine uptake at dopamine transporter.
# [5] = biological target: T1, Sodium-dependent dopamine transporter; test: Inhibition of [3H]mazindol binding to the dopamine transporter.
# [6] = biological target: T1, Sodium-dependent dopamine transporter; test: Inhibition of [3H]BTCP binding to the dopamine transporter.
# [7] = biological target: T1, Sodium-dependent dopamine transporter; test: Potency for the inhibition of [3H]WIN-35428 binding to the dopamine transporter
# [8] = biological target: T1, Sodium-dependent dopamine transporter; test: Inhibition of [3H]WIN-35428 binding to the dopamine transporter
# [9] = biological target: T1, Sodium-dependent dopamine transporter; test: Inhibition of [3H]GBR-12935 binding to the dopamine transporter.
# [10] = biological target: T1, Sodium-dependent dopamine transporter; test: Inhibition of [3H]cocaine binding to the dopamine transporter.
# [11] = biological target: T1, Sodium-dependent dopamine transporter; test: Inhibition of dopamine uptake at dopamine transporter.
# [12] = biological target: T1, Sodium-dependent dopamine transporter; test: Inhibition of [3H]dopamine uptake at the dopamine transporter.
# [13] = biological target: T1, Sodium-dependent dopamine transporter; remark: listed apart in the source
# T1 sequence (P23977 whole entry): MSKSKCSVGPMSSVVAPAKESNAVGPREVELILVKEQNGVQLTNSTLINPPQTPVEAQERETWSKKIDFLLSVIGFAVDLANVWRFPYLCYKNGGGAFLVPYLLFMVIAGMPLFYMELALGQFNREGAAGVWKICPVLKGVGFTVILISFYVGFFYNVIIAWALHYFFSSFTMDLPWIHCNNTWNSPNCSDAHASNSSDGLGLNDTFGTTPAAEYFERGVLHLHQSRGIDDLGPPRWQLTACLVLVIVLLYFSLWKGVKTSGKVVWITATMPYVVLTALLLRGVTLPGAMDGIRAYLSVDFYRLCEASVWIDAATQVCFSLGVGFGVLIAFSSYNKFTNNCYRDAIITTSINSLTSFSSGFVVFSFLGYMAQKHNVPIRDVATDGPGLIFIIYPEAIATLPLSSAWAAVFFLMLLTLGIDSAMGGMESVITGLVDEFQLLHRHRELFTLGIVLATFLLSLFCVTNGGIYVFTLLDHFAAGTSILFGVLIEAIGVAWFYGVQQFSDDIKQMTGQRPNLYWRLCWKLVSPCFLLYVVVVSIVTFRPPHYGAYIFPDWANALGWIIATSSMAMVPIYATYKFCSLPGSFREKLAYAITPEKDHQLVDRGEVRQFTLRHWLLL
smiles,measurement,setting,value
COC(=O)C1C2CC[C@H](C[C@@H]1OC(=O)Nc1cccc([N+](=O)[O-])c1)N2C (stereo partly specified),IC50,[1],0.33 µM
same,IC50,[2],0.037 µM
same,IC50,[3],0.178 µM
COC(=O)C1C2CC[C@H](C[C@@H]1OC(=O)c1ccccc1)[N+]2(C)C (stereo partly specified),IC50,[4],0.014 µM
same,IC50,[5],20 µM
same,IC50,[6],0.008 µM
same,IC50,[7],10.7 µM
COC(=O)C1C2CC[C@H](C[C@@H]1OC(=O)c1ccc(N=[N+]=[N-])c(I)c1)N2C (stereo partly specified),IC50,[3],0.8 µM
CN1C2CC[C@@H]1C[C@H](OC(=O)c1ccccc1)C2C(=O)OCCc1ccc(N)cc1 (stereo partly specified),IC50,[8],0.071 µM
COC(=O)C1C2CC[C@H](C[C@@H]1OC(=O)c1ccc(N)cc1)N2C (stereo partly specified),IC50,[5],3.04 µM
same,IC50,[7],1.23 µM
CN1C2CC[C@@H]1C[C@H](O)C2C(=O)O (stereo partly specified),IC50,[5],> 1000 µM
same,IC50,[1],0.0047 µM
CN1C2CC[C@@H]1C[C@H](OC(=O)c1ccc(N)cc1)C2C(=O)O (stereo partly specified),IC50,[4],0.035 µM
same,IC50,[5],4.51 µM
same,IC50,[1],0.009 µM
same,IC50,[7],8.25 µM
COC(=O)C1C2CC[C@H](C[C@@H]1c1ccc(F)cc1)N2 (stereo partly specified),IC50,[2],0.036 µM
COC(=O)C1C2CC[C@H](C[C@@H]1OC(=O)c1ccccc1)N2Cc1ccccc1 (stereo partly specified),IC50,[9],0.25 µM
same,IC50,[8],0.668 µM
same,IC50,[10],0.02 µM
same,IC50,[6],0.14 µM
same,IC50,[3],0.077 µM
COC(=O)[C@@H]1C2CC[C@H](C[C@@H]1c1ccccc1)N2C,IC50,[7],0.561 µM
CN1[C@@H]2CC[C@H]1C[C@H](OC(=O)c1ccccc1)C2,IC50,[10],3.3 µM
same,IC50,[5],15 µM
same,IC50,[11],186 µM
same,IC50,[2],23 µM
same,IC50,[12],110 µM
COC(=O)[C@@H]1C2CC[C@H](C[C@@H]1c1ccc(N=[N+]=[N-])cc1)N2C,IC50,[8],0.002 µM
same,IC50,[11],0.2 µM
COC(=O)C1C2CC[C@H](C[C@H]1c1ccc(C)cc1)N2C (stereo partly specified),IC50,[5],0.005 µM
same,IC50,[7],0.002 µM
same,IC50,[3],0.11 µM
c1ccc2sc(C3(N4CCCCC4)CCCCC3)cc2c1,IC50,[6],0.005 µM
same,IC50,[1],0.02 µM
same,IC50,[13],0.002 µM
same,IC50,[2],0.042 µM
COC(=O)C1C2CC[C@H](C[C@@H]1c1ccc(I)cc1)N2C (stereo partly specified),IC50,[7],0.001 µM
CC[C@H](C)[C@H](NC(=O)[C@@H](NC[C@H](CC(C)C)NC(=O)[C@H](Cc1c[nH]cn1)NC(=O)[C@H](Cc1ccccc1)NC(=O)[C@]1(C)CCCN1C(=O)OC(C)(C)C)C(C)C)C(=O)NCc1ccccn1,IC50,[4],0.029 µM
same,IC50,[5],0.178 µM
same,IC50,[1],0.093 µM
same,IC50,[3],2.48 µM
COC(=O)C1C2CC[C@H](C[C@@H]1OC(=O)c1cccc(N=C=S)c1)N2C (stereo partly specified),IC50,[1],0.072 µM
same,IC50,[7],1.46 µM
O=C(O[C@H]1C[C@H]2CCC(N2)C1C(=O)O)c1ccccc1 (stereo partly specified),IC50,[10],78.2 µM
same,IC50,[5],342 µM
COC(=O)C1C2CC[C@H](C[C@@H]1c1ccccc1)N2 (stereo partly specified),IC50,[5],0.36 µM
same,IC50,[2],0.086 µM
CN1C2CC[C@@H]1C[C@H](c1ccc(Cl)cc1)C2C(=O)OCCc1ccc(N=[N+]=[N-])c(I)c1 (stereo partly specified),IC50,[3],1.4 µM
CNC(=O)C1C2CC[C@H](C[C@@H]1OC(=O)c1ccccc1)N2C (stereo partly specified),IC50,[4],2 µM
C=CCN1C2CC[C@@H]1C[C@H](OC(=O)c1ccccc1)C2C(=O)OC (stereo partly specified),IC50,[2],1.02 µM
same,IC50,[3],2.5 µM
COC(=O)C1C2CC[C@H](C[C@@H]1OC(=O)c1ccc(N=C=S)cc1)N2C (stereo partly specified),IC50,[1],0.276 µM
same,IC50,[7],1.05 µM
same,IC50,[3],2.78 µM
COC(=O)[C@@H]1C2CC[C@H](C[C@@H]1c1ccc(N)cc1)N2C,IC50,[10],0.192 µM
same,IC50,[11],0.557 µM
COC(=O)C1C2CC[C@H](C[C@@H]1c1ccc(Cl)cc1)N2C (stereo partly specified),IC50,[8],0.001 µM
same,IC50,[5],0.002 µM
same,IC50,[11],0.03 µM
COC(=O)C1C2CC[C@H](C[C@@H]1O)N2C (stereo in doubt; 18),IC50,[5],62 µM
COC(=O)C1C2CC[C@H](C[C@@H]1OC(=O)c1ccccc1)N2 (stereo in doubt; 22),IC50,[5],1.21 µM
same,IC50,[1],0.092 µM
same,IC50,[7],0.303 µM
same,IC50,[2],0.414 µM
COC(=O)C1C2CC[C@H](C[C@@H]1OC(=O)c1ccccc1)N2 (stereo in doubt; 23),IC50,[2],0.27 µM
same,IC50,[3],2.5 µM
COC(=O)C1C2CC[C@H](C[C@@H]1O)N2C (stereo in doubt; 31),IC50,[5],87 µM
COC(=O)[C@@H]1C2CC[C@H](C[C@@H]1c1ccccc1)N2C (stereo in doubt; 47),IC50,[5],0.119 µM
same,IC50,[2],0.044 µM
same,IC50,[3],0.96 µM
COC(=O)[C@@H]1C2CC[C@H](C[C@@H]1c1ccccc1)N2C (stereo in doubt; 49),IC50,[2],0.022 µM
same,IC50,[3],1.33 µM
COC(=O)[C@@H]1C2CC[C@H](C[C@@H]1c1ccccc1)N2C (stereo in doubt; 50),IC50,[2],32 µM
same,IC50,[3],200 µM
COC(=O)[C@@H]1C2CC[C@H](C[C@@H]1c1ccccc1)N2C (stereo in doubt; 68),IC50,[8],2.9 µM
same,IC50,[10],2.6 µM
same,IC50,[5],385 µM
COC(=O)[C@@H]1C2CC[C@H](C[C@@H]1c1ccccc1)N2C (stereo in doubt; 70),IC50,[10],1.2 µM
same,IC50,[11],2.1 µM
